What is called melting point is the temperature, or range, at which the solid turns liquid.

Molecule `O=C(NCc1ccc(Cl)cc1)c1cnc2cc(-n3cccc3)ccc2c1O` had a melting point greater than 200 °C.

Turning to `Cc1cccc(-n2c(Cn3ccnc3)nc3ccccc32)c1`, the melting point is 91 to 93 °C. As for `CC(=O)OC1CSC(Oc2cccnc2-c2ccco2)C(OC(C)=O)C1OC(C)=O` (stereo unspecified), the figure is 160 °C. The same measure for `CN(C)Cc1ccc(OCC(=O)N2CCN(c3ccc(N4C[C@H](CNC(=S)C5CC5)OC4=O)cc3F)CC2)cc1`: 169 to 170 °C. As for `CC1CCCCC1C(=O)Nc1ccc(-c2cnc(-c3ccc(NC(=O)C4CCCCC4)cc3)[nH]2)cc1` (stereo unspecified), the figure is 221 to 223 °C.

`O=C1CCC(C(=O)OCc2ccccn2)N1` (stereo unspecified): the melting point fell in the range of 130 to 131 °C.

Molecule `CON=C(Cn1nnnc1S)C(=O)O` had a melting point of 84 to 86 °C. As to `COCCOc1ccc(CCNC(=O)OCc2ccccc2)c(Oc2ncc(C(F)(F)F)cc2Cl)c1`, the melting point was in the range of 102 to 103 °C.

`Oc1cccc(C2CNC3(CCCCC3)O2)c1` (stereo unspecified) returned a melting point of 138 to 139 °C. The same measure for `Cc1ccnc(C(=O)c2[nH]c3ccc(Cl)cc3c2CC(=O)O)c1`: 230 to 231 °C; for `CC(=O)Oc1cccc2c1C(=O)c1c(O)cccc1C2C(=O)C1CCCCC1` (stereo unspecified): 154 °C; for `NC(=O)N1CCSC1c1ccccc1OCCN1CCN(c2cccc(F)c2)CC1` (stereo unspecified): 142 to 143 °C. The same measure for `CCCCCCCCCCC(=O)N[C@H]1CCCNC(=O)C1`: 91 to 92 °C; for `COC1=CC[C@H]2[C@@H]3CCc4cc(OC)ccc4[C@H]3CC[C@]12C`: 90.5 to 93 °C. As for `COc1ccc2cc(C(O)C(C)N3CCC(NC(=O)c4ccccc4)CC3)ccc2c1` (stereo unspecified), the figure is 175 to 177 °C; as for `O=C(O)/C=C/c1c[nH]c2ccccc2c1=O`, 242 to 244 °C; as for `COc1ccc2c(c1)CC[C@@H]1[C@@H]2CC[C@@]2(C)[C@H]1CCC21CC(O)CO1` (stereo partly specified), 95 to 97 °C. In turn, `O=C1c2cc3c(cc2CCC1(Br)Br)OCC3` displayed a melting point of 138 to 142 °C. The same measure for `COc1cc(O)cc2c1-c1c(O)cccc1C2=O`: 71 to 72 °C; for `C=C(C)C(=O)OCc1ccc(C#Cc2ccc(OC(=O)C(=C)C)cc2)cc1`: 65 °C; for `NC(=O)c1ccc(-c2ccc(N)cc2)cc1`: 281 to 284 °C. As for `O=C(c1ccc(-c2cnc3c(c2)N(Cc2cc(F)ccc2F)CCN3)cn1)N1CCOCC1`, the figure is 111 to 113 °C; as for `CC(C)(C)c1cc(C(=O)NNC(N)=S)cc(C(C)(C)C)c1O`, 210 to 211 °C; as for `Cc1[nH]c(Cl)c(C#N)c1SC#N`, 171 °C. As for `Cc1ccc(-n2c(-c3sc(Nc4ccc(Cl)cc4)nc3C)nc3ccccc3c2=O)cc1`, the figure is greater than 275 °C; as for `COc1ccc2c(c1)CC(=O)N2`, 148 to 150 °C; as for `CCCCCCCCCCCCCCCCCNC(=O)OCCOCCOC(=O)N(Cc1ccccn1)C(=O)OCC`, 57 to 59 °C. With `CC(=O)c1c(C)c(NC(=O)NC(C)(C)C)c(C)c2c1OCC2c1ccc(C(C)C)cc1` (stereo unspecified), the melting point lay in the range of 207 to 208 °C.

`O=C1C(=Cc2cc(Br)cs2)CCc2cc(OCCn3ccnc3)ccc21` yielded a melting point of 164 to 166 °C.

In turn, `O=S1(=O)NCN(C2CCCCC2)c2ccc(Cl)cc21` came in with a melting point of 233 to 235 °C. As for `Cn1nnn(-c2c(Cl)ccc(C(=O)O)c2Cl)c1=O`, the figure is 221 to 225 °C.

For `COc1cc2nc(-c3cc(C)c(OCC(N)=O)c(C)c3)[nH]c(=O)c2cc1OC`, the melting point is 354 to 356 °C.

As for `COCCNc1ccnc2c(NC(=O)c3c(Cl)cccc3Cl)cccc12`, the melting point came out at 166 °C. In the case of `O=C(Nc1cc(F)ccc1O)c1cc(Cl)c(O)c(Cl)c1`, the melting point lay within 227 to 229 °C. The same measure for `CC(C)n1cc(-c2nc(C(N)=O)c(N)nc2-c2ccccc2)ccc1=O`: 240 to 245 °C; for `CC(C)c1cccc(C(C)C)c1-n1nnn(C(C)C)c1=S`: 109 to 111 °C. As for `CC(=O)COC1CC2C3CCC4=CC(=O)C=CC4(C)C3(F)C(O)CC2(C)C1(O)C(=O)CCl` (stereo unspecified), the figure is 226 to 227 °C; as for `O=C1NC(=O)C(c2cccc3ccsc23)O1` (stereo unspecified), 130 to 132 °C; as for `Cc1sc(C)c(CCl)c1CCl`, 68 to 70 °C. As for `CCCCC1CCCc2oc(C(=N)N)cc21` (stereo unspecified), the figure is 243 to 245 °C; as for `COc1ccc(N2CCN(C=C3C(=O)Nc4cc(OC)c(OC)cc43)CC2)cc1OC`, 193 to 195 °C.

As to `CCNC(=O)c1c(Cl)cccc1[Si](C)(C)CC`, the melting point lay within 94 to 95 °C. As for `Cc1cccc(CCC(=O)Cn2ccnc2)c1`, the figure is 160 to 162 °C. As for `CC(C)(C)OC(=O)N(Cc1ccccc1)C1CN(C(c2ccccc2)c2ccccc2)C1`, the figure is 117 to 118 °C. For the molecule `NC(=O)C(=O)NC(C(=O)OC(c1ccccc1)c1ccccc1)c1ccccc1` (stereo unspecified), the melting point was found to be 168 °C. The same measure for `Cn1c(CNCC(C)(C)C)cc2cc(NC(=O)c3ccc(C#CC4(O)CC4)cc3)ccc21`: 173 °C; for `CCOC(=O)Cc1cc2cc(Br)ccc2s1`: 56 to 57 °C. As for `O=C(CCC1CCN(Cc2cccc(F)c2)CC1)c1cc2c3c(c1)CCN3C(=O)CC2`, the figure is 111 to 112 °C; as for `O=C(C(=O)c1cccc(I)c1)c1cccc(I)c1`, 127 °C. As for `CCS(=O)(=O)N1CCN(CCCCCCNc2cc(OC)cc3c(C)ccnc23)CC1`, the figure is 72 to 74 °C; as for `N#CN1CCC(c2nn(-c3ccc(F)cc3)c3ccccc23)CC1`, 108 to 110 °C. `Nc1ccc(C(=O)N(CCN2CCC(C(=O)c3ccc(F)cc3)CC2)c2cccc(N)c2)cc1` showed a melting point of 108 to 110 °C. Molecule `Cc1csc(Cl)c1NC(=S)Nc1cscc1N` returned a melting point of 132 to 135 °C. As for `CNCCON=C1c2ccccc2C2CC2c2ccccc21` (stereo unspecified), the figure is 100 to 101 °C. As for `O=C(Nc1ccc(Cl)cn1)c1cn2nc(N3CCN(C(=O)c4ccccc4C(F)(F)F)CC3)ccc2n1`, the figure is 265 to 268 °C; as for `CCOC(=O)c1cnc2c(OC(F)F)c(F)ccc2c1O`, 218 to 219 °C; as for `NC(=O)c1cnn2c1NCC=C2c1ccccc1`, 149 to 152 °C.

Regarding `CC(C)(C)OC(=O)Oc1ccc(C(=O)c2ccc(OC(=O)OC(C)(C)C)cc2)cc1`, the melting point is 141 to 143 °C. The same measure for `CC(=O)c1cn(C(=O)OC(C)(C)C)c2ccc(OCc3ccccc3)cc12`: 114 to 116 °C; for `Cc1c(F)c(Oc2cccc(C(F)(F)F)c2)nc(-c2ccc(C(F)(F)F)cc2)c1F`: 87 °C.

In turn, `CCn1c(C)c(C2(c3c(-c4ccccc4)[nH]c4ccccc34)OC(=O)C(Cl)=C2Cl)c2ccccc21` (stereo unspecified) yielded a melting point of 225 °C. As for `CC1CCCC(C)N1Cc1ccc(N)cc1` (stereo unspecified), the figure is 112 to 115 °C; as for `CCc1c(C(=O)O)sc2[nH]c(=O)c(=O)[nH]c12`, 230 to 232 °C.

`COC(=O)C=C1CN2C(=O)N(c3cc(Cl)cc(Cl)c3)C(=O)C2(Cc2ccc(Br)cc2)C1` (stereo unspecified) returned a melting point of 74.9 °C.

Molecule `CCCC(CCC)n1nnc2c(Nc3c(Br)cc(OC)cc3OC)nc(C)cc21` gave a melting point of 140 to 141 °C. The same measure for `COc1cc(OC)c(-c2cc3ccccc3[nH]2)cc1C=CC(=O)c1ccc(S(=O)(=O)NC(C)=O)cc1`: 218 to 220 °C; for `O=C(Cl)c1cccnc1Nc1cccc(Cl)c1`: 112 to 115 °C; for `Cc1ccc(Cl)cc1N1CCCN(C(C)C)C1=S`: 176 to 178 °C. In the case of `Nc1ccc2c3c(cccc13)C(=O)N(O)C2=O`, the melting point is greater than 360 °C. As for `O=C1c2cc(CCCCOC(=O)C(F)(F)F)ccc2OCc2sccc21`, the figure is 65.5 to 67.5 °C; as for `CCOC(=O)/C=C/[C@H]1O[C@@H](n2cc(CC)c(=O)[nH]c2=O)C[C@@H]1OC(C)=O`, 132 to 133 °C. The same measure for `Clc1ccnc2ncnn12`: 190 °C. Regarding `CCOC(=O)c1ccc(N(CC)Cc2ccc(Cl)cc2)cc1`, the melting point lay within 48 to 50 °C. The same measure for `O=C(NC1CCN(CCC2CCOc3ccccc32)CC1)C1CCc2ccccc2C1` (stereo unspecified): 130 to 132 °C; for `CCOC(=O)c1ccc(CCc2cnc3[nH]c(N)nc(N)c2-3)cc1`: 202 to 204 °C; for `COc1cc(Br)ccc1-c1ccc(Br)cc1N`: 94.5 to 97 °C. The same measure for `CCOC(=O)[C@H](C)Nc1c(C)cc(C)cc1C`: 81 to 83 °C.

On to `CC1(C)CC(NC(=O)CCC(=O)NC2CC(C)(C)N(OC3CCCCC3)C(C)(C)C2)CC(C)(C)N1OC1CCCCC1`, for which the melting point lay in the range of 230 to 234 °C.

Consider `COC(=O)c1cc(C(=O)c2c(C)c(OC)c3c(OCC(=O)OC(C)(C)C)cccn23)ccc1N`, for which the melting point turned out to be 188 °C. The same measure for `CCNCC1CN(c2c(F)cc3c(=O)c(C(=O)O)cn(C4CC4)c3c2Cl)CC1C` (stereo unspecified): 254 to 257 °C; for `CCOC(=O)C(NC=O)=C1CC2CCC(C1)N2C(=O)OCc1ccccc1`: 124 °C. The same measure for `CC[C@H](COC)n1cc(Cl)nc(N2CCc3cc(Cl)cc(Cl)c32)c1=O`: 143 to 146 °C; for `Cc1ccc2c3c(ccc2n1)OCC(CN1CCC(c2nc4ccccc4o2)CC1)O3` (stereo unspecified): 128 to 130 °C; for `CC(C)(CNC=O)c1ccc(N)c([N+](=O)[O-])c1`: 113 to 115 °C. `CCOCC(=NO)C(C)(C)NCCCNC(C)(C)C(Cn1ccnc1[N+](=O)[O-])=NO` had a melting point of 122 to 123 °C.

`CCNC(=O)CNc1c(C#N)cnn1-c1ccc(C(F)(F)F)cc1Cl` displayed a melting point of 144 to 145 °C. `CNc1nc(C)c(-c2nc3ccccc3c(=O)n2-c2ccc(C(C)=O)cc2)s1` yielded a melting point of 245 to 246 °C.

For the molecule `Cc1csc(Cc2ccc([N+](=O)[O-])cc2)n1`, the melting point was in the range of 81 to 82 °C.

Regarding `O=C(O)C(=O)c1ccc(O)c(Cl)c1`, the melting point is 116 to 117 °C. In the case of `O=C(CCl)c1csc(C(=O)CCl)c1`, the melting point was in the range of 154 to 155 °C.

As to `CSc1nc(C)cc2nccn12`, the melting point fell in the range of 67 to 69 °C.

(Values after a melting point compilation (Tetko et al.; mined from patent text by program, amines drawn as free bases though some values may be those of a salt).)
